Measured values as given in patent US20230085307A1, “PYRIDAZINONE COMPOUND AND HERBICIDE” (NISSAN CHEMICAL CORPORATION, priority 2019, published 2023).

Experiments:
southern crabgrass [1] = assay: Test Example 4: herbicidal effect by soil treatment (Table 19, symbol F); type: in vivo, southern crabgrass (Digitaria ciliaris); details: amount of applied herbicide 320 g/ha
In short: (§1)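 Emulsion of test compound, water-diluted to predetermined amount, sprayed on soil after sowing (seed depth ~1.5 cm, sterilized diluvial soil). Greenhouse, 25–30° C. Effect graded at three weeks post-spray.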

green foxtail [2] = assay: Test Example 4: herbicidal effect by soil treatment (Table 19, symbol G); type: in vivo, green foxtail (Setaria viridis); details: amount of applied herbicide 320 g/ha
In short: as §1

Italian ryegrass [3] = assay: Test Example 4: herbicidal effect by soil treatment (Table 19, symbol K); type: in vivo, Italian ryegrass (Lolium multiflorum); details: amount of applied herbicide 320 g/ha
In short: as §1

blackgrass [4] = assay: Test Example 4: herbicidal effect by soil treatment (Table 19, symbol J); type: in vivo, blackgrass (Alopecurus myosuroides); details: amount of applied herbicide 320 g/ha
In short: as §1

redroot pigweed = assay: Test Example 4: herbicidal effect by soil treatment (Table 19, symbol N); type: in vivo, redroot pigweed (Amaranthus retroflexus); details: amount of applied herbicide 320 g/ha
In short: as §1

chickweed = assay: Test Example 4: herbicidal effect by soil treatment (Table 19, symbol P); type: in vivo, common chickweed (Stellaria media); details: amount of applied herbicide 320 g/ha
In short: as §1

velvetleaf [5] = assay: Test Example 4: herbicidal effect by soil treatment (Table 19, symbol M); type: in vivo, velvetleaf (Abutilon theophrasti); details: amount of applied herbicide 320 g/ha
In short: as §1

windgrass [6] = assay: Test Example 5: herbicidal effect by foliage application, plastic box (Table 20, symbol L); type: in vivo, windgrass (Apera spica-venti); details: foliage application, 320 g/ha, three weeks after application
In short: (§2)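 Post-emergence foliar test in sterilized diluvial soil. Compound applied as water-diluted emulsion at a predetermined rate to 14-day-old plants; evaluation at three weeks.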

false cleavers = assay: Test Example 4: herbicidal effect by soil treatment (Table 19, symbol Q); type: in vivo, false cleavers (Galium spurium); details: amount of applied herbicide 320 g/ha
In short: as §1

Chinese sprangletop = assay: Test Example 3: herbicidal effect by foliage application, Wagner pot (Table 18, symbol D); type: in vivo, chinese sprangletop (Leptochloa chinensis); details: amount of applied herbicide 320 g/ha
In short: (§3)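 Plants were sown in alluvial soil held under 0.1–0.5 cm standing water and grown 14 days in a greenhouse at 25–30 °C. An emulsifiable formulation, water-diluted to the set dose, was then sprayed onto the foliage, and effects were scored three weeks later using previously defined criteria.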

Italian ryegrass [7] = assay: Test Example 5: herbicidal effect by foliage application, plastic box (Table 20, symbol K); type: in vivo, Italian ryegrass (Lolium multiflorum); details: foliage application, 320 g/ha, three weeks after application
In short: as §2

velvetleaf [8] = assay: Test Example 5: herbicidal effect by foliage application, plastic box (Table 20, symbol M); type: in vivo, velvetleaf (Abutilon theophrasti); details: foliage application, 320 g/ha, three weeks after application
In short: as §2

lambsquarters [9] = assay: Test Example 4: herbicidal effect by soil treatment (Table 19, symbol O); type: in vivo, lambsquarters (Chenopodium album); details: amount of applied herbicide 320 g/ha
In short: as §1

barnyard grass [10] = assay: Test Example 3: herbicidal effect by foliage application, Wagner pot (Table 18, symbol H); type: in vivo, barnyard grass (Echinochloa crus-galli); details: amount of applied herbicide 320 g/ha
In short: as §3

blackgrass [11] = assay: Test Example 5: herbicidal effect by foliage application, plastic box (Table 20, symbol J); type: in vivo, blackgrass (Alopecurus myosuroides); details: foliage application, 320 g/ha, three weeks after application
In short: as §2

rice flat sedge = assay: Test Example 3: herbicidal effect by foliage application, Wagner pot (Table 18, symbol E); type: in vivo, rice flat sedge (Cyperus iria); details: amount of applied herbicide 320 g/ha
In short: as §3

southern crabgrass [12] = assay: Test Example 5: herbicidal effect by foliage application, plastic box (Table 20, symbol F); type: in vivo, southern crabgrass (Digitaria ciliaris); details: foliage application, 320 g/ha, three weeks after application
In short: as §2

barnyard grass [13] = assay: Test Example 5: herbicidal effect by foliage application, plastic box (Table 20, symbol H); type: in vivo, barnyard grass (Echinochloa crus-galli); details: foliage application, 320 g/ha, three weeks after application
In short: as §2

wild oat [14] = assay: Test Example 5: herbicidal effect by foliage application, plastic box (Table 20, symbol I); type: in vivo, wild oat (Avena fatua); details: foliage application, 320 g/ha, three weeks after application
In short: as §2

green foxtail [15] = assay: Test Example 5: herbicidal effect by foliage application, plastic box (Table 20, symbol G); type: in vivo, green foxtail (Setaria viridis); details: foliage application, 320 g/ha, three weeks after application
In short: as §2

persian speedwell [16] = assay: Test Example 5: herbicidal effect by foliage application, plastic box (Table 20, symbol R); type: in vivo, Persian speedwell (Veronica persica); details: foliage application, 320 g/ha, three weeks after application
In short: as §2

wild oat [17] = assay: Test Example 4: herbicidal effect by soil treatment (Table 19, symbol I); type: in vivo, wild oat (Avena fatua); details: amount of applied herbicide 320 g/ha
In short: as §1

lambsquarters [18] = assay: Test Example 5: herbicidal effect by foliage application, plastic box (Table 20, symbol O); type: in vivo, lambsquarters (Chenopodium album); details: foliage application, 320 g/ha, three weeks after application
In short: as §2

barnyard grass [19] = assay: Test Example 4: herbicidal effect by soil treatment (Table 19, symbol H); type: in vivo, barnyard grass (Echinochloa crus-galli); details: amount of applied herbicide 320 g/ha
In short: as §1

windgrass [20] = assay: Test Example 4: herbicidal effect by soil treatment (Table 19, symbol L); type: in vivo, windgrass (Apera spica-venti); details: amount of applied herbicide 320 g/ha
In short: as §1

persian speedwell [21] = assay: Test Example 4: herbicidal effect by soil treatment (Table 19, symbol R); type: in vivo, Persian speedwell (Veronica persica); details: amount of applied herbicide 320 g/ha
In short: as §1

Structure (SMILES) | F: southern crabgrass, herbicidal effect grade (southern crabgrass [1]) | G: green foxtail, herbicidal effect grade (green foxtail [2]) | K: Italian ryegrass, herbicidal effect grade (Italian ryegrass [3]) | J: blackgrass, herbicidal effect grade (blackgrass [4]) | N: redroot pigweed, herbicidal effect grade (redroot pigweed) | P: chickweed, herbicidal effect grade (chickweed) | M: velvetleaf, herbicidal effect grade (velvetleaf [5]) | herbicidal effect on windgrass (L) (windgrass [6]) | Q: false cleavers, herbicidal effect grade (false cleavers) | Herbicidal effect on D (Chinese sprangletop), foliage application (Chinese sprangletop) | herbicidal effect on Italian ryegrass (K) (Italian ryegrass [7]) | herbicidal effect on velvetleaf (M) (velvetleaf [8]) | O: lambsquarters, herbicidal effect grade (lambsquarters [9]) | Herbicidal effect on H (barnyard grass), foliage application (barnyard grass [10]) | herbicidal effect on blackgrass (J) (blackgrass [11]) | Herbicidal effect on E (rice flat sedge), foliage application (rice flat sedge) | herbicidal effect on southern crabgrass (F) (southern crabgrass [12]) | herbicidal effect on barnyard grass (H) (barnyard grass [13]) | herbicidal effect on wild oat (I) (wild oat [14]) | herbicidal effect on green foxtail (G) (green foxtail [15]) | also measured
Cc1nn(C)c(=O)c(-c2c(-c3ccc(F)cc3)oc3ccc(F)cc23)c1O [9-014] | 4 (Herbicidal rate of 70% or more and less than 90%) | 5 (Herbicidal rate of 90% or more (almost completely withered)) | 5 (Herbicidal rate of 90% or more (almost completely withered)) | 4 (Herbicidal rate of 70% or more and less than 90%) | 5 (Herbicidal rate of 90% or more (almost completely withered)) | 5 (Herbicidal rate of 90% or more (almost completely withered)) | 4 (Herbicidal rate of 70% or more and less than 90%) | 4 (Herbicidal rate of 70% or more and less than 90%) | 0 (Herbicidal rate of 5% or less (almost no effect)) | 3 (Herbicidal rate of 40% or more and less than 70%) | 5 (Herbicidal rate of 90% or more (almost completely withered)) | 3 (Herbicidal rate of 40% or more and less than 70%) | 3 (Herbicidal rate of 40% or more and less than 70%) | 3 (Herbicidal rate of 40% or more and less than 70%) | 4 (Herbicidal rate of 70% or more and less than 90%) | 5 (Herbicidal rate of 90% or more (almost completely withered)) | 2 (Herbicidal rate of 20% or more and less than 40%) | 4 (Herbicidal rate of 70% or more and less than 90%) | 3 (Herbicidal rate of 40% or more and less than 70%) | 4 (Herbicidal rate of 70% or more and less than 90%) | herbicidal effect on persian speedwell (R) (persian speedwell [16]): 5 (Herbicidal rate of 90% or more (almost completely withered)); I: wild oat, herbicidal effect grade (wild oat [17]): 1 (Herbicidal rate of 5% or more and less than 20%); herbicidal effect on lambsquarters (O) (lambsquarters [18]): 4 (Herbicidal rate of 70% or more and less than 90%); H: barnyard grass, herbicidal effect grade (barnyard grass [19]): 4 (Herbicidal rate of 70% or more and less than 90%); L: windgrass, herbicidal effect grade (windgrass [20]): 0 (Herbicidal rate of 5% or less (almost no effect)); R: persian speedwell, herbicidal effect grade (persian speedwell [21]): 4 (Herbicidal rate of 70% or more and less than 90%)
Cc1nn(C)c(=O)c(-c2c(-c3ccc(SC(C)C)cc3)oc3ccc(F)cc23)c1O [9-041] | 3 (Herbicidal rate of 40% or more and less than 70%) | 4 (Herbicidal rate of 70% or more and less than 90%) | 5 (Herbicidal rate of 90% or more (almost completely withered)) | 0 (Herbicidal rate of 5% or less (almost no effect)) | 5 (Herbicidal rate of 90% or more (almost completely withered)) | 1 (Herbicidal rate of 5% or more and less than 20%) | 1 (Herbicidal rate of 5% or more and less than 20%) | 4 (Herbicidal rate of 70% or more and less than 90%) | 0 (Herbicidal rate of 5% or less (almost no effect)) | 2 (Herbicidal rate of 20% or more and less than 40%) | 5 (Herbicidal rate of 90% or more (almost completely withered)) | 3 (Herbicidal rate of 40% or more and less than 70%) | 4 (Herbicidal rate of 70% or more and less than 90%) | 5 (Herbicidal rate of 90% or more (almost completely withered)) | 3 (Herbicidal rate of 40% or more and less than 70%) | 5 (Herbicidal rate of 90% or more (almost completely withered)) | 0 (Herbicidal rate of 5% or less (almost no effect)) | 3 (Herbicidal rate of 40% or more and less than 70%) | 3 (Herbicidal rate of 40% or more and less than 70%) | 4 (Herbicidal rate of 70% or more and less than 90%) | herbicidal effect on persian speedwell (R) (persian speedwell [16]): 5 (Herbicidal rate of 90% or more (almost completely withered)); I: wild oat, herbicidal effect grade (wild oat [17]): 0 (Herbicidal rate of 5% or less (almost no effect)); herbicidal effect on lambsquarters (O) (lambsquarters [18]): 4 (Herbicidal rate of 70% or more and less than 90%); H: barnyard grass, herbicidal effect grade (barnyard grass [19]): 1 (Herbicidal rate of 5% or more and less than 20%); L: windgrass, herbicidal effect grade (windgrass [20]): 0 (Herbicidal rate of 5% or less (almost no effect)); R: persian speedwell, herbicidal effect grade (persian speedwell [21]): 4 (Herbicidal rate of 70% or more and less than 90%)
